Results from the NIST ThermoML archive (doi:10.1021/je050525c).
Numbers after ± are expanded uncertainties.

Conditions: Liquid, Ebulliometric method (Recirculating still)

Structure (SMILES) | vapor or sublimation pressure (179.68 K) [kPa] | vapor or sublimation pressure (190.14 K) [kPa] | vapor or sublimation pressure (200.68 K) [kPa] | vapor or sublimation pressure (210.03 K) [kPa]
CC [ethane] | 77 ± 4 | 136 ± 4 | 223 ± 4 | 336 ± 4
FC(F)(F)F [tetrafluoromethane] | 679 ± 5 | 1058 ± 6 | 1575 ± 7 | 2163 ± 9
